For assay [1], the system named is TRPV1. As to conditions: cited from earlier work; for EC50: read-out: TRPV1 EC50 (potency); for IC50: read-out: TRPV1 IC50 (desensitization).
The target in assay [2] is T1, human TRPV1 (Homo sapiens, UniProt Q8NER1).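 For Emax: percent of maximal Ca2+ influx with 4 µM ionomycin.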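 For TRPV1 Eff. %: percent of maximal Ca2+ influx with 4 µM ionomycin.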
T1 construct: expressed in transfected cells
Nature of the assay: cell-based. As to conditions: for Emax: HEK293, read-out: TRPV1 Eff. %.

Assay [3] addresses T2, rat TRPA1 (Rattus norvegicus, UniProt Q6RI86).
T2 construct: expressed in transfected cells
Nature of the assay: cell-based. Particulars: for Emax: HEK293, read-out: TRPA1 Eff. %.

Structures are written as SMILES. Where two headings read alike, the source gives them in different places. Where only a bound is given, the exact number is not on record here.

The source of these data is article PMC11820618 (Molecules, 2025).
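Throughout, for TRPA1 Eff. %: percent of maximal Ca2+ influx with 100 µM AITC.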

T2 sequence (Q6RI86 whole entry): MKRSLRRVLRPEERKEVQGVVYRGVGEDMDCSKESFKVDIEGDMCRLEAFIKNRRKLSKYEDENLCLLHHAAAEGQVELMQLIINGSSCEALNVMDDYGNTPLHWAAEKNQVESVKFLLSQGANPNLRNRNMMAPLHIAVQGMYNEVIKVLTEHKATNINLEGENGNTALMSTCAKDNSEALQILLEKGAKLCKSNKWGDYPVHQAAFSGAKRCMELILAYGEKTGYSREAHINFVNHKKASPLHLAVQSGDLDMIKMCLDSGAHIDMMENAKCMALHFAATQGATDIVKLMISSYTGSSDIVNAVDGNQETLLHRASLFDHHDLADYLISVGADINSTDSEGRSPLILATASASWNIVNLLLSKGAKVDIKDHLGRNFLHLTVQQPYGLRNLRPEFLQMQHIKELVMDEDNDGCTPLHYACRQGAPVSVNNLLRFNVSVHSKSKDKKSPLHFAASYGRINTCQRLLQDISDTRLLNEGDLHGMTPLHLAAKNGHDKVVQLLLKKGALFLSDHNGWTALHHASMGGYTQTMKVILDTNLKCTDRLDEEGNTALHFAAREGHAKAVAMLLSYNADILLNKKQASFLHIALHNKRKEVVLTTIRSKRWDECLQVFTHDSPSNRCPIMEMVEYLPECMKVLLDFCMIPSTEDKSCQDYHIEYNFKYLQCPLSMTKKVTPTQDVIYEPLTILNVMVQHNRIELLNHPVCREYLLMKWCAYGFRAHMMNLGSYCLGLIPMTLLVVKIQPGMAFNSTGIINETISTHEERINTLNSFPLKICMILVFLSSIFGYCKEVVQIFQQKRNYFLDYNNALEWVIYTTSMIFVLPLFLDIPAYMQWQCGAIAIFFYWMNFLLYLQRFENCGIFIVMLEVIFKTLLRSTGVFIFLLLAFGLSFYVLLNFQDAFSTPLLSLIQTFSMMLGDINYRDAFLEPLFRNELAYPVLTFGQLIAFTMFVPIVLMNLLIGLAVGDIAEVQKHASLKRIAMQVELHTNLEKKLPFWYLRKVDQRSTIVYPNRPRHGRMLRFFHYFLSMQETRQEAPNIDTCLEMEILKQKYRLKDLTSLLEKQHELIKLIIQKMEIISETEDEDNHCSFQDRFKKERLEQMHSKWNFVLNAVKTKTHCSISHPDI
T1 sequence (Q8NER1 whole entry): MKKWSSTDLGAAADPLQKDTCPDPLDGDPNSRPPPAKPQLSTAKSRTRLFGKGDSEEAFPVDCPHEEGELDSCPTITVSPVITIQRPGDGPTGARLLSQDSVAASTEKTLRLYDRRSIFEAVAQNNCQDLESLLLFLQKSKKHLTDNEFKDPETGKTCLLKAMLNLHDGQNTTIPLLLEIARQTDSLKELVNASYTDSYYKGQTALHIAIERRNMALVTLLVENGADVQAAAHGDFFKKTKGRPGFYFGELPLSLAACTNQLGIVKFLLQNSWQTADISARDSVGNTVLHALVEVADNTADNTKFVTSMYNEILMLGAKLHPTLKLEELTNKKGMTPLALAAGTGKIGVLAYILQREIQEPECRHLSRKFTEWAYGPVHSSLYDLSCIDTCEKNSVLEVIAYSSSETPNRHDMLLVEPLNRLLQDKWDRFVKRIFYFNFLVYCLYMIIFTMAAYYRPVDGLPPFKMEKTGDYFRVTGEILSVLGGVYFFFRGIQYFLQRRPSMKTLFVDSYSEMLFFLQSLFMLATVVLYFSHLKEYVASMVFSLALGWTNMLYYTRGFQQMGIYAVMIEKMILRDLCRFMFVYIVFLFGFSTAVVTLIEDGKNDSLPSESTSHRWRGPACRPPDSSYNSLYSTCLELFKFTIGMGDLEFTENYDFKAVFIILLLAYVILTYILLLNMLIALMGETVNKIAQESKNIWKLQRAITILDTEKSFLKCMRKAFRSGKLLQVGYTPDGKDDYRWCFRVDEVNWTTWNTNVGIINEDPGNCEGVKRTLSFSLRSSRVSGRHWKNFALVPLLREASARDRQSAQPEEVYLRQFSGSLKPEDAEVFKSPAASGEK

Turning to `COc1cc(CNC(=O)CCCc2ccc(I)s2)ccc1O` [4a], in assay [1], the EC50 is 0.0074 µM and the IC50 was 0.0051 µM.

Take `COc1cc(CNC(=O)CCCc2ccc(-c3cccnc3)s2)ccc1O` [4b]: in assay [1], the EC50 was 0.0764 µM and the IC50 was 0.145 µM.

With `COc1cc(CNC(=O)CCCc2ccc(-c3ccccc3)s2)ccc1O` [4c], in assay [1], the EC50 was 0.0016 µM and the IC50 was 0.0017 µM.

For the compound `COc1cc(CNC(=O)CCCc2ccccc2)ccc1O` [4d], in assay [1], the EC50 is 0.109 µM and the IC50 is 0.273 µM.

As to `O=C(Nc1ccc(O)cc1)c1cc2ccccc2[nH]1` [5a, N-(4-Hydroxyphenyl)-1H-indole-2-carboxamide], in assay [2], a half-maximal effect (EC50) was put at 2.3 ± 0.1 µM, the IC50 is 10 ± 3.9 µM and the Emax came out at 54%. Further, in assay [3], the IC50 was more than 100 µM and the Emax was less than 10%.

Regarding `O=C(NCc1ccccc1)c1cc2ccccc2[nH]1` [5b, N-Benzyl-1H-indole-2-carboxamide], in assay [2], the IC50 is more than 100 µM and the Emax was less than 10%. Moreover, in assay [3], the IC50 is more than 100 µM and the Emax was less than 10%.

On to `O=C(NCc1ccc(O)cc1)c1cc2ccccc2[nH]1` [5c, N-(4-Hydroxybenzyl)-1H-indole-2-carboxamide], for which, in assay [2], the EC50 is more than 10 µM, the IC50 is more than 50 µM and the Emax was found to be 47.2 ± 0.3%. Besides, in assay [3], the IC50 was more than 100 µM and the Emax is less than 10%.

As to `COc1ccc(CNC(=O)c2cc3ccccc3[nH]2)cc1` [5d, N-(4-Methoxybenzyl)-1H-indole-2-carboxamide], in assay [2], the IC50 is more than 50 µM and the Emax was less than 10%. In assay [3], the EC50 was more than 50 µM, the IC50 was more than 100 µM and the Emax came out at 39.1 ± 3.5%.

In the case of `O=C(NCc1ccc(F)cc1)c1cc2ccccc2[nH]1` [5e, N-(4-Fluorobenzyl)-1H-indole-2-carboxamide], in assay [2], the IC50 was more than 100 µM and the Emax is less than 10%. Moreover, in assay [3], the EC50 is 23.7 ± 2.1 µM, the IC50 was more than 50 µM and the Emax came to 42.8 ± 1.8%.

Regarding `COc1cc(CNC(=O)c2cc3ccccc3[nH]2)ccc1O` [5f, N-(4-Hydroxy-3-methoxybenzyl)-1H-indole-2-carboxamide], in assay [2], a half-maximal effect (EC50) was put at 0.56 ± 0.08 µM, the IC50 amounted to 1.03 ± 0.09 µM, the “TRPV1 Eff. %” value is reported as 66.8 ± 1.3% and the Emax was determined as 66.8%.

Take `O=C(NCc1ccc(Cl)c(Cl)c1)c1cc2ccccc2[nH]1` [5g, N-(3,4-Dichlorobenzyl)-1H-indole-2-carboxamide]: in assay [2], the IC50 was more than 100 µM and the Emax was less than 10%.

Turning to `O=C(NCc1ccc(F)c(F)c1)c1cc2ccccc2[nH]1` [5h, N-(3,4-Difluorobenzyl)-1H-indole-2-carboxamide], in assay [2], the IC50 was more than 100 µM and the Emax is less than 10%. Further, in assay [3], the response was half-maximal at 19.1 ± 3.1 µM (EC50), the IC50 is more than 50 µM and the Emax lay within 68.4 to 101%.

For `O=C(NCCc1ccc(O)c(O)c1)c1cc2ccccc2[nH]1` [5i, N-(3,4-Dihydroxyphenethyl)-1H-indole-2-carboxamide], in assay [2], the EC50 worked out at 8.1 ± 0.1 µM, the IC50 came out at 2.1 ± 0.1 µM, the “TRPV1 agonist behaviour (in words)” value is recorded as “very weak agonist” and the Emax came to 37.3 ± 0.1%.

For the compound `Cn1c(C(=O)Nc2ccc(O)cc2)cc2ccccc21` [6a, N-(4-Hydroxyphenyl)-1-methyl-1H-indole-2-carboxamide], in assay [2], the EC50 was found to be 0.34 ± 0.01 µM, the IC50 amounted to 0.72 ± 0.08 µM and the Emax was more than 60%. Moreover, in assay [3], a half-maximal effect (EC50) was put at 22.7 ± 1.7 µM, the IC50 is more than 50 µM and the Emax is 42.9 ± 0.5%.

Take `Cn1c(C(=O)Nc2ccc(F)cc2)cc2ccccc21` [6b, N-(4-Fluorophenyl)-1-methyl-1H-indole-2-carboxamide]: in assay [2], the EC50 stood at 3.5 ± 2.1 µM, the IC50 was found to be 6.9 ± 2.6 µM, the “TRPV1 Eff. %” value is on record as 34.4 ± 4.5% and the Emax was 34.4%. In assay [3], the EC50 was 2 ± 1.1 µM, the IC50 is 5.2 ± 0.4 µM, the “TRPA1 Eff. %” value amounted to 78.6 ± 9.7% and the “TRPA1 agonist behaviour (in words)” value is reported as “very good TRPA1 agonist”. For the same compound, the Emax in assay [3] was determined as 78.6%.

For `Cn1c(C(=O)NCc2ccccc2)cc2ccccc21` [6c, N-Benzyl-1-methyl-1H-indole-2-carboxamide], in assay [2], the IC50 is more than 50 µM and the Emax is less than 10%. In assay [3], the IC50 was more than 50 µM and the Emax is less than 10%.

As for `Cn1c(C(=O)NCc2ccc(O)cc2)cc2ccccc21` [6d, N-(4-hydroxybenzyl)-1-methyl-1H-indole-2-carboxamide], in assay [2], the EC50 is 1.1 ± 0.1 µM, the IC50 came out at 19.2 ± 6.7 µM, the “TRPV1 Eff. %” value was 27.6 ± 0.3% and the Emax is 27.6%. For the same compound, in assay [3], the IC50 was more than 100 µM and the Emax is less than 10%.

For the compound `COc1ccc(CNC(=O)c2cc3ccccc3n2C)cc1` [6e, N-(4-methoxybenzyl)-1-methyl-1H-indole-2-carboxamide], in assay [2], the IC50 is more than 10 µM and the Emax is less than 10%. Moreover, in assay [3], the EC50 was determined as 20.3 ± 1.1 µM, the IC50 was more than 50 µM and the Emax is 81.3 ± 1.8%.

As to `Cn1c(C(=O)NCc2ccc(F)cc2)cc2ccccc21` [6f, N-(4-fluorobenzyl)-1-methyl-1H-indole-2-carboxamide], in assay [2], the IC50 is more than 100 µM and the Emax is less than 10%. Besides, in assay [3], it took 20.4 ± 6.9 µM to reach a half-maximal effect (EC50) and the IC50 worked out at 33.5 ± 3.2 µM.

Turning to `COc1cc(CNC(=O)c2cc3ccccc3n2C)ccc1O` [6g, N-(4-hydroxy-3-methoxybenzyl)-1-methyl-1H-indole-2-carboxamide], in assay [2], the EC50 worked out at 0.0365 µM and the Emax is more than 60%. Besides, the IC50 in assay [2] (read-out: TRPV1 IC50 (antagonism/desensitization)) stood at 0.0535 ± 0.048 µM. Moreover, in assay [3], the EC50 was more than 50 µM, the IC50 was more than 100 µM and the Emax turned out to be 59.8 ± 1.6%.

On to `Cn1c(C(=O)NCc2ccc(Cl)c(Cl)c2)cc2ccccc21` [6h, N-(3,4-Dichlorobenzyl)-1-methyl-1H-indole-2-carboxamide], for which, in assay [2], the IC50 was 16.4 ± 0.5 µM and the Emax is less than 10%.

As to `Cn1c(C(=O)NCc2ccc(F)c(F)c2)cc2ccccc21` [6i, N-(3,4-Difluorobenzyl)-1-methyl-1H-indole-2-carboxamide], in assay [2], the IC50 is more than 100 µM and the Emax is less than 10%. Besides, in assay [3], the EC50 came out at 10.9 ± 0.9 µM, the IC50 amounted to 32.2 ± 3.2 µM and the Emax was 68.4 to 101%.

As to `Cn1c(C(=O)NCCc2ccc(O)c(O)c2)cc2ccccc21` [6j, N-(3,4-Dihydroxyphenethyl)-1-methyl-1H-indole-2-carboxamide], in assay [2], a half-maximal response (EC50) required 0.18 ± 0.05 µM, the IC50 worked out at 0.26 ± 0.02 µM and the Emax was more than 60%.

As for `COc1cc(CNC(=O)CCCC/C=C/C(C)C)ccc1O` [capsaicin], the IC50 in assay [1] was […].

Take `COc1cc(CNC(=O)CCCc2cccs2)ccc1O` [compound 2, N-(4-Hydroxy-3-Methoxybenzyl)-4-(Thiophen-2-yl)Butanamide]: in assay [1], the EC50 was 0.87 µM and the IC50 is 1.3 µM.

Turning to `COc1cc(CNC(=O)CCCCC2CCSS2)ccc1O` (stereo not drawn) [compound 3], in assay [1], the EC50 is 0.13 µM and the IC50 is 0.13 µM.
